Literature values, collected in patent US8729108B2, “Waterborne topical compositions for the delivery of active ingredients such as azelaic acid” (priority 2008, dated 2014).

## O=C(O)CCCCCCCC(=O)O [Azelaic acid, nonanedioic acid]
Cosmetic oils
  solubility in cosmetic oils: little or no solubility
water
  maximum azelaic acid content of an aqueous solution: about 0.24 % by weight (w/w)
